According to patent KR20140065554A, “안토시아닌을 포함하는 항염용 조성물” (대한민국(농촌진흥청장), priority 2012, dated 2014):

What was measured:
Format in all cases: cell-based
[1] = system: LPS-induced NO production in RAW 264.7 (RAW 264.7에서 LPS로 유도된 NO 생성); test: Inhibition of LPS-induced NO production in RAW 264.7; settings: p<0.05
[2] = system: LPS-induced NO production (LPS로 유도되는 NO의 생성); test: Anti-inflammatory effect assay of peak 2 anthocyanin: inhibition of LPS-induced NO production; settings: p<0.05
HepG2 = test: Protective effect against hydrogen peroxide (H2O2, 0.9 mM)-induced oxidative stress in HepG2; settings: HepG2, H2O2 0.9mM, p<0.05

Compound | inhibition of LPS-induced NO production [1] | inhibition at 1 µM ([2]; 1uM) [%] | inhibition at 10 µM ([2]; 10uM) [%] | cell protective effect against H2O2-induced oxidative stress (HepG2)
COc1cc(-c2[o+]c3cc(O)cc(O[C@@H]4O[C@H](CO)[C@@H](O)[C@H](O)[C@H]4O)c3cc2O[C@@H]2O[C@H](CO)[C@@H](O)[C@H](O)[C@H]2O[C@@H]2O[C@H](CO)[C@@H](O)[C@H](O)[C@H]2O)ccc1O (single isomer, unassigned) [Peak 2, Peonidin-3-sophoroside-5-glucoside] | 유의적으로 저해하였다 | 8 | 15 | 
COc1cc(-c2[o+]c3cc(O)cc(O[C@@H]4O[C@H](CO)[C@@H](O)[C@H](O)[C@H]4O)c3cc2O[C@@H]2O[C@H](COC(=O)/C=C/c3ccc(O)c(O)c3)[C@@H](O)[C@H](O)[C@H]2O[C@@H]2O[C@H](COC(=O)/C=C/c3ccc(O)c(O)c3)[C@@H](O)[C@H](O)[C@H]2O)ccc1O (single isomer, unassigned) [Peak 12, Peonidin 3-(6", 6"'-dicaffeoyl sophoroside)-5-glucoside] |  |  |  | 유의적인 세포 보호 효과를 보였다
Peonidin 3-p-hydroxybenzoyl sophoroside-5-glucoside [Peak 4] | 유의적으로 저해하였다 |  |  | 
